Test results taken from patent publication US20100203614A1, “FATTY ALDEHYDE REDUCTASE” (Utah State University, priority 2009, published 2010).
Values joined by “and” are separate entries in the source; they are usually repeats but may differ in a detail not shown here. Equal entries are not always repeated. “Also recorded” adds a separate entry of the source. Structures can show the parent of a compound that is named as a salt. Where two headings read alike, the source gives them in different places. Blank lines part the entries; values can stand above or below the compound they belong to.

What was measured:
[1] = tested on: MBP-FALDR fusion protein; test: Inhibition of decanal reduction by MBP-FALDR in the presence of NADPH; assay type: biochemical, Marinobacter aquaeolei VT8; conditions: for Percent Activity: 100 mM MES pH 6.5, 200 μM NADPH, 250 μM decanal, 125 μg MBP-FALDR, activity remaining vs no inhibitor; for effect on decanal reduction in words: tested at 1.0 mM
Procedure: (§1) For Fatty Aldehyde Continuous Spectrophotometric Assay Development, all assays were performed in a sealed quartz cuvette with a 1 cm path length. The cuvette and solutions were first degassed with argon on a manifold to remove oxygen from the headspace and solutions. Substrates were initially disbursed into a buffer solution containing BSA at a concentration of 0.5 mg/mL by sonication for three ten second intervals using a microtip sonicator (Branson, Danbury, Conn.). The initial assay for pH optimization included a buffer of 100 mM MOPS, 100 mM MES, and 100 mM TAPS. For reduction assays, 75 μL of a 2 mg/mL NADPH stock was added to bring the initial concentration of NADPH in the cuvette to approximately 200 μM, and an approximate absorbance at 340 nm of 1.2 based on the reported extinction coefficient of 6220 M^−1 cm^−1 for NADPH. In all assays, the reaction was run for at least two minutes with the NADPH and substrate present, prior to the addition of any enzyme, to obtain a background oxidation rate of the NADPH.
Finally, the ability of decanol to inhibit reduction of decanal was also tested.
Referring again to Table 2, the inhibition assays were run in 100 mM MES buffer pH 6.5 with 200 μM NADPH, 250 μM decanal and 125 μg of MBP-FALDR fusion protein. All compounds were dissolved in buffer except dipyridyl, which was dissolved in dimethyl sulfoxide (DMSO).

[2] = tested on: MBP-FALDR enzyme (maltose binding protein-fatty aldehyde reductase fusion protein); test: Continuous spectrophotometric assay of fatty aldehyde reductase activity (NADPH oxidation at 340 nm), substrate comparison and kinetics; assay type: biochemical, Marinobacter aquaeolei VT8; conditions: for substrate activity in words: compared with decanal; for substrate activity in words / Relative Activity (Percent of Decanal): substrate 100 μg/mL; for Relative Activity (Percent of Decanal): 160 μg enzyme, decanal = 85 nmols/min/mg = 100; for Km: substrate of MBP-FALDR, NADPH, FIG. 2 substrate is cis-11-hexadecenal
Procedure: as §1, with “the NADPH. […] A linear fit of the data was then used to establish the rate, and the initial background rate was subtracted, to determine the rate associated with substrate reduction by the MBP-FALDR enzyme.” for “the NADPH.”
Having established that the MBP-FALDR would utilize NADPH as a substrate, it was possible to employ a continuous spectrophotometric assay to monitor substrate reduction rates based on the loss of absorbance at 340 nm when NADPH is oxidized to NADP^+. Using this assay, it was possible to establish the pH dependence of the reduction reaction. The rate of reaction was highest at pH 6.3, with a steep increase in activity going from 8.0 to 6.3. The rate at 6.3 was only slightly greater than at 6.5 ([…]). Several factors had to be considered in establishing the optimal pH of the assay. The first was the background oxidation of the NADPH without any MBP-FALDR enzyme present. […] The assays were run under an argon atmosphere to minimize oxidation of the NADPH by O2. A further consideration was the rapid degradation that occurs at the lowest pH values. […] So, for standard assays used here, a pH of 6.5 was selected, where the activity was minimally affected by slight variations in pH. The following discussion is useful in understanding some features and benefits of the various embodiments of the invention:
Utilizing the continuous assay to monitor MBP-FALDR activity, the dependence of rate on substrate concentration was determined for all of the commercially available substrates described above. Each assay was repeated multiple times to confirm the results from each single determination. The results obtained for cis-11-hexadecenal are shown in FIG. 2 and are representative of the results obtained for repeated determinations and for the other substrates. […] In addition, several factors could limit the observed activity. All of the substrates tested have limited solubility in aqueous solutions, and must first be suspended in solution via sonication. Even under these conditions, it is likely that the substrates exist inside micelles. The sonication process utilized here could result in the partial degradation of the substrate over time. Additionally, the suspension of the substrate in solution is only temporary, and the substrate slowly separates from aqueous solution. Due to these limitations, the measured activity is likely to be an underestimate of the actual activity. In the cell, the enzyme and substrate are likely associated with the hydrophobic membranes. […] It was also observed that the MBP-FALDR enzyme was unstable over time, even when stored at 4° C., losing as much as 50% of the activity over a period of a week. Though the purification is quite rapid, it is uncertain how much activity is lost during preparation. […]

[3] = biological target: Marinobacter aquaeolei VT8 fatty aldehyde reductase (SEQ ID NO: 2) as maltose binding protein-fatty aldehyde reductase fusion protein (MBP-FALDR), SEQ ID NO: 3 (Marinobacter nauticus, UniProt A1U2T0); test: Inhibition of decanal reduction by MBP-FALDR; assay type: biochemical; conditions: for effect on activity (in words): 1.0 mM
Procedure: as §1, with “the NADPH. […] A linear fit of the data was then used to establish the rate, and the initial background rate was subtracted, to determine the rate associated with substrate reduction by the MBP-FALDR enzyme.” for “the NADPH.”
To probe the possible mechanism of the fatty aldehyde reducatase enzyme comprising the amino acid sequence of SEQ ID NO: 2, applicants again used the MBP-FALDR enzyme and some potential chemical inhibitors were tested for effects on the reduction of decanal by the MBP-FALDR enzyme in the presence of NADPH. In all cases, the compound was tested initially at concentrations of 1.0 mM, and if a significant inhibition was found, lower concentrations were also tested (Table 2). […] At higher concentrations, this was difficult to assess fully, as the dithionite interferes with the absorbance at 340 nm where activity is measured. […] This could be an indication of an active site residue or cofactor that is susceptible to reduction. […] This would indicate that if a transition metal is involved in the catalysis, it is not readily accessible to such chelators. Finally, the ability of decanol to inhibit reduction of decanal was also tested.
Certain embodiments of the invention may be characterized, in part, by the inhibition of the reduction of decanal by a fatty aldehyde reductase enzyme comprised by an amino acid sequence at least 90% identical to the amino acid sequence of SEQ ID NO: 2.
Referring again to Table 2, the inhibition assays were run in 100 mM MES buffer pH 6.5 with 200 μM NADPH, 250 μM decanal and 125 μg of MBP-FALDR fusion protein. All compounds were dissolved in buffer except dipyridyl, which was dissolved in dimethyl sulfoxide (DMSO). […] Activity is reported as the activity remaining in the presence of each compound as a percentage of the activity without any inhibitor present. *Not determined. Each compound was tested multiple times to confirm reproducibility. The remaining activity presented here is the result from a single set of data.

[4] = tested on: MBP-FALDR enzyme; test: Initial assessment of activity: overnight reaction with NADPH/NADH or NADP+, GC/GC-MS analysis; assay type: biochemical, Marinobacter aquaeolei VT8; conditions: with NADP+
Procedure: For initial assessment of the activity of the purified MBP-FALDR enzyme, 50 μg of purified MBP-FALDR protein was added to a reaction mixture containing 100 mM of Tris buffer at pH 7.9, 100 mM NaCl, 2.4 mM of either NADPH or NADH as a reductant, and decanal, oleic acid, and hexadecanol as possible substrates. The assays were run under an argon atmosphere in septa sealed vials overnight at room temperature with constant gentle mixing. The products of the reactions were then extracted from the buffer by adding an equal volume of hexane and organic layer components were analyzed by gas chromatography equipped with a flame ionization detector (Forte HT5 column (SGE Analytical Science, Austin, Tex.), 30 meter by 0.32 mm inner diameter with 0.5 μm film thickness, with argon as a carrier and a temperature ramp from 60° C. to 360° C. increasing at 10° C. per minute). Samples containing new peaks not present in a control sample were also run through a gas chromatograph equipped with a mass spectrometer (Shimadzu GC-2010 and GCMS-QP2010S) to assign the identity of the product.
Preliminary experiments were run with the MBP-FALDR enzyme to probe possible substrates by mixing either NADH or NADPH with an aldehyde (decanal), alcohol (hexadecanol) or fatty acid (oleic acid) and then looking for changes in concentration of one or more of the potential substrates by GC analysis. The assays were allowed to run overnight in a sealed vial under an atmosphere of argon to maintain the reduced forms of the nicotinamide coenzymes. […] This initial result pointed to the likelihood that the MBP-FALDR enzyme is an NADPH-dependent fatty aldehyde reductase, and further experiments were run to characterize this activity. […] The activity of medium chain alcohol dehydrogenases from a broad range of species show rates of oxidation of alcohols that are 10% of the rates of the reduction of the corresponding aldehyde, so it is possible that this rate is too low to detect.

[5] = reduction of decanal with NADPH

Compound: O[C@H](CS)[C@H](O)CS (racemic) [Dithiothreitol]
- Percent Activity ([1]; inhibitor 1.0 mM): 76%

Compound: O=C1O[C@H]([C@@H](O)CO)C(O)=C1O [Ascorbic Acid]
- Percent Activity ([1]; inhibitor 1.0 mM): 76%

Compound: O=Cc1ccccc1 [Benzaldehyde]
- substrate activity in words [2]: no apparent activity
- Relative Activity (Percent of Decanal) [2]: <1% of Decanal

Compound: CCCC=O [Butanal]
- substrate activity in words [2]: no apparent activity
- Relative Activity (Percent of Decanal) [2]: <1% of Decanal

Compound: c1ccc(-c2ccccn2)nc1 [Dipyridyl]
- effect on activity (in words) [3, 5]: only a moderate inhibition of activity
- Percent Activity ([1]; inhibitor 0.25 mM): 59%
- Percent Activity ([1]; inhibitor 1.0 mM): 46%
- effect on decanal reduction in words [1]: moderate inhibition

Compound: O=S(O)S(=O)O [Dithionite]
- Percent Activity (activity remaining in presence of inhibitor) ([3]; 0.25 mM inhibitor, 100 mM MES pH 6.5, 200 μM NADPH, 250 μM decanal, 125 μg MBP-FALDR, % of activity without inhibitor): 8%
- inhibition (in words) ([3]; 250 μM, reduction of decanal with NADPH, compared with higher concentration): the inhibition is more pronounced
- Percent Activity (activity remaining in presence of inhibitor) ([3]; 1.0 mM inhibitor, 100 mM MES pH 6.5, 200 μM NADPH, 250 μM decanal, 125 μg MBP-FALDR, % of activity without inhibitor): 25%
- effect on activity (in words) [3, 5]: significant decrease in activity
- Percent Activity ([1]; inhibitor 0.25 mM): 8%
- Percent Activity ([1]; inhibitor 1.0 mM): 25%
- effect on decanal reduction in words [1]: significant decrease in activity

Compound: CCCCCCCCCCCCO [Dodecanol]
- Percent Activity ([1]; inhibitor 0.25 mM): 55%
- Percent Activity ([1]; inhibitor 1.0 mM): 54%

Compound: O=C(O)CN(CCN(CC(=O)O)CC(=O)O)CC(=O)O [EDTA (Disodium Salt)]
- effect on activity (in words) [3, 5]: little effect on the activity
- inhibition at 1000 µM ([3]; pH 6.5, read-out: Percent Activity (activity remaining in presence of inhibitor)): 81%

Compound: OCCS [β-Mercaptoethanol]
- inhibition at 1000 µM ([3]; 1.0 mM inhibitor, 100 mM MES pH 6.5, 200 μM NADPH, 250 μM decanal, 125 μg MBP-FALDR, % of activity without inhibitor, read-out: Percent Activity (activity remaining in presence of inhibitor)): 75%

Second part, led by results:

- substrate activity in words [2]: activity was lower
- Relative Activity (Percent of Decanal) [2]: 55% of Decanal
- Km ([2]; Michaelis-Menten fit): ~200 µM
Compound: CCCCCCCCCCCC=O [Dodecanal]

- substrate activity in words [2]: no apparent activity
- Relative Activity (Percent of Decanal) [2]: <1% of Decanal
Compound: CCCCCC=O [Hexanal]

- Relative Activity (Percent of Decanal) [2]: 52% of Decanal
- Km ([2]; Michaelis-Menten fit): ~750 µM
Compound: CCCCCCCC=O [Octanal]
- substrate activity in words [2]: approximately half the activity obtained for decanal

- Vmax (maximum velocity) ([2]; Michaelis-Menten fit, substrate cis-11-hexadecenal (FIG. 2)): 63 nmol/min/mg
- Relative Activity (Percent of Decanal) [2]: 87% of Decanal
- Km ([2]; Michaelis-Menten fit): ~177 µM and 177 µM
Compound: CCCC/C=C\CCCCCCCCCC=O [cis-11-hexadecenal]
- substrate activity in words [2]: slightly lower than that obtained for decanal; also recorded: activity comparable to decanal

- reverse reaction: aldehyde production by GC [4]: no detectable levels
Compound: CCCCCCCCCCCCCCCCO [hexadecanol]
